Results reported in patent publication US8937055B2, “Heterocyclic ring compound having muscle cell or adipocyte differentiation regulating action” (Takeda Pharmaceutical Company Limited, priority 2010, dated 2015).

Legend:
[1] = Anti-diabetes action in KKA^y mouse (glycohemoglobin); assay type: in vivo, female KKA^y mouse; conditions: 2 weeks, variation from value before administration, n=6
Experimental: Female KKA^y mice (12-13 week-old, CLEA Japan, Inc.) were bred allowing free ingestion of both feed and water. The mice were acclimation bred with powder CE-2 (CLEA Japan, Inc.) from 2 weeks before administration of the test compound. The body weight, blood glycohemoglobin % (GHb %) value, plasma glucose, triglyceride and total cholesterol concentration were measured, and the mice were divided into 3 groups or 5 groups (6 mice/group) such that those measurement values are uniform at the start of the administration. The compound was administered by mixing (0.01-0.03%) in the feed for 2 weeks. GHb % was measured on the last day. GHb % was measured using Tosoh Corporation automatic glycohemoglobin analyzer (HLC-723GHbV Alc2.2). The numerical values in Table 11 show the variation from the value before administration to the measured value after administration in mean±standard deviation at n=6 (n is the number of mice).

[2] = tested on: Mouse-derived myoblast line C2C12 cell; experiment: Cell differentiation promoting activity in myoblast (creatine kinase activity); assay type: cell-based; conditions: 48 h, 1 μM compound, 2 days in differentiation medium, CK activity without compound = 100%, read-out: creatinine kinase activating action (%)
Experimental: • (1) Mouse-derived myoblast line C2C12 cell (Dainippon Pharmaceutical Co., Ltd.) was subcultured in a high glucose Eagle's modified Dulbecco's medium (GIBCO) containing 10% calf fetal bovine serum (GIBCO), 100 unit/mL penicillin and 100 μg/mL streptomycin (hereinafter to be referred to as a growth medium), plated at 5000 cells/cm^2 and cultured at 37° C., under 5% CO2. • (2) When the cells reached subconfluence, the medium was exchanged with a high glucose Eagle's modified Dulbecco's medium (GIBCO) containing 2% horse serum (GIBCO) and penicillin, streptomycin and a test compound (hereinafter to be referred to as a differentiation medium), and the cells were cultured for 2 days. To the control group was added DMSO solution instead of the test compound. • (3) The cells were washed with PBS, 0.5% NP-40 solution was added thereto, and the cells were lysed by freeze-thawing. The cell extract was centrifuged, and the creatine kinase activity in the supernatant was measured as an index of muscle differentiation. The creatine kinase activity was measured using CPKII Test Wako (Wako Pure Chemical Industries, Ltd.) according to the manual of the kit. The tests using the compounds of Example 7 to Example 14 were corrected based on the total protein amount measured using CA Protein Assay Kit (Thermo Scientific).
The numerical values in Table 3 show CK activity of the compound addition group with the CK activity without addition of the compound as 100%, and 1 μM of the compound was added for the measurement.

[3] = tested on: differentiated C2C12 muscle cell; experiment: Sugar metabolism promoting activity in muscle cell (lactic acid production); assay type: cell-based, mouse; conditions: C2C12 myotube, 1 μM compound, 2 days; lactic acid concentration without compound = 100%
Experimental: • (1) In the same manner as in Experimental Example 1, C2C12 cell was cultured in a growth medium. When the cells reached subconfluence, the medium was exchanged with a differentiation medium, and the cells were cultured for 3 to 4 days while exchanging the medium every 2 or 3 days until the cells differentiated to form a myotube. • (2) After confirmation of myotube formation under a microscope, the compound (1 μM) was added to a differentiation medium and cultured for 2 days. The cells were washed with Krebs-Ringer HEPES phosphate buffer (10 mM HEPES, pH 7.4, 131 mM NaCl, 4.7 mM KCl, 2.5 mM CaCl2-2H2O, 1.2 mM MgSO4-7H2O, 1.2 mM KH2PO4), the medium was exchanged with Krebs-Ringer HEPES phosphate buffer containing 5 mM glucose, 0.2% fatty acid-free bovine serum albumin, and the cells were cultured at 37° C. for 4 hr. • (3) The lactic acid concentration of the culture supernatant was measured using Detarminer LA kit (Kyowa Medex Co., Ltd.).
The numerical values in Table 4 show the lactic acid concentration of the compound addition group with the lactic acid concentration without addition of the compound as 100%.

3T3-L1 cells = experiment: Adipocyte differentiation suppressive action (fat droplet quantification); assay type: cell-based
Experimental: 3T3-L1 cells (ATCC) were cultured in a growth medium until confluence. 1 μM dexamethasone, 0.5 mM 3-isobutyl-1-methylxanthine and 5 μg/mL insulin were added to the medium, and the cells were cultured for 3 days. The medium was exchanged with a growth medium containing 4 μg/mL insulin and the cells were cultured for 3 more days. When the compound (1 μM) was to be added, it was added after the cells reached confluence, and the cells were cultured for 6 days. After completion of the culture period, the fat droplet formed was quantified using Adipogenesis Assay Kit (CHEMICON). The numerical values in Table 12 show the relative value when without addition of the compound as 100% (n is the number of samples).

NF-kB = NF-kB activation suppressive action in muscle cell (luciferase reporter, TNF-α induced); assay type: cell-based, mouse; conditions: TNF-α 10 ng/mL, activity without TNF-α = 1, n=8
Experimental: • (1) C2C12 cells introduced with NF-kB reporter plasmid (C2C12/NF-kB-luc, Panomics) was plated at 20000 cells/cm^2, 100 μg/ml hygromycin was added thereto, and the cells were cultured in a growth medium in the same manner as in Example 1. • (2) The cells were cultured in a differentiation medium containing the compound of Example 1, Example 8, Example 9, Example 10 or Example 11 for 1 hr, TNF-α was added thereto such that the concentration is 10 ng/mL, and the cells were cultured for 4 hr. • (3) The luciferase activity in the medium was measured using a Stedy-Glo luciferase assay system (Promega). The NF-kB activity was evaluated by measuring the luciferase activity.
The data in Table 6 to Table 10 show mean±standard deviation at n=8 (n is the number of samples).

| SMILES | activity at 1 µM [2] [%] | lactic acid production promoting action (%) [3] [%] | NF-κB activity (multiple) (NF-kB; 0.001 μM compound) | NF-κB activity (multiple) (NF-kB; 0.003 μM compound) | NF-κB activity (multiple) (NF-kB; 0.01 μM compound) | NF-κB activity (multiple) (NF-kB; 0.03 μM compound) | NF-κB activity (multiple) (NF-kB; 0.1 μM compound) | NF-κB activity (multiple) (NF-kB; 0.3 μM compound) | NF-κB activity (multiple) (NF-kB; 1 μM compound) | NF-κB activity (multiple) (NF-kB; 3 μM compound) | NF-κB activity (multiple) (NF-kB; 10 μM compound) | also measured |
| --- | --- | --- | --- | --- | --- | --- | --- | --- | --- | --- | --- | --- |
| O=C(/C=C/c1cnccc1-c1ccc(F)cc1)Nc1ccc(CN2CCOCC2)cc1 [Example 6, (2E)-3-[4-(4-fluorophenyl)pyridin-3-yl]-N-[4-(morpholin-4-ylmethyl)phenyl]prop-2-enamide] | 299 | 216.7 | – | – | – | – | – | – | – | – | – | GHb change (%) ([1]; 0.02% mixed with feed): −1.2% |
| O=C(/C=C/c1cncnc1-c1ccc(F)cc1)Nc1ccc(CCc2nnco2)cc1 [Example 4, (2E)-3-[4-(4-fluorophenyl)pyrimidin-5-yl]-N-{4-[2-(1,3,4-oxadiazol-2-yl)ethyl]phenyl}prop-2-enamide] | 249 | 222.9 | – | – | – | – | – | – | – | – | – | GHb change (%) ([1]; 0.03% mixed with feed): −0.7% |
| Cc1nnc(CCc2ccc(NC(=O)/C=C/c3cnccc3-c3ccc(F)cc3)cc2)o1 [Example 3, (2E)-3-[4-(4-fluorophenyl)pyridin-3-yl]-N-{4-[2-(5-methyl-1,3,4-oxadiazol-2-yl)ethyl]phenyl}prop-2-enamide] | 249 | 175.4 | – | – | – | – | – | – | – | – | – | GHb change (%) ([1]; 0.03% mixed with feed): −0.3% |
| COc1ccc(-c2ccncc2/C=C/C(=O)Nc2ccc(CCc3nnco3)cc2)cc1 [Example 2, (2E)-3-[4-(4-methoxyphenyl)pyridin-3-yl]-N-{4-[2-(1,3,4-oxadiazol-2-yl)ethyl]phenyl}prop-2-enamide] | 211 | 168.3 | – | – | – | – | – | – | – | – | – | GHb change (%) ([1]; 0.02% mixed with feed): −1%; lipid accumulation amount in the cell in fat differentiation, result in words (3T3-L1 cells; 1 μM): decrease the lipid accumulation amount in the cell; lipid accumulation (%) (3T3-L1 cells; 1 μM compound, 6 days, without compound = 100%, n=2): 45% |
| COP(=O)(Cc1ccc(NC(=O)/C=C/c2cnccc2-c2ccccc2)cc1)OC [Example 12, dimethyl (4-{[(2E)-3-(4-phenylpyridin-3-yl)prop-2-enoyl]amino}benzyl)phosphonate] | 189 | – | – | – | – | – | – | – | – | – | – | – |
| O=C(/C=C/c1cnccc1-c1ccc(F)cc1)Nc1ccc(OCc2nnco2)cc1 [Example 10, (2E)-3-[4-(4-fluorophenyl)pyridin-3-yl]-N-[4-(1,3,4-oxadiazol-2-ylmethoxy)phenyl]prop-2-enamide] | 164 | – | 10.0 | 10.2 | 10.5 | 10.5 | 9.6 | 7.8 | 7.5 | 6.9 | 6.2 | – |
| O=C(/C=C/c1cnccc1-c1ccc(F)cc1)Nc1ccc(Cn2cnc3ccccc32)cc1 [Example 8, (2E)-N-[4-(1H-benzimidazol-1-ylmethyl)phenyl]-3-[4-(4-fluorophenyl)pyridin-3-yl]prop-2-enamide] | 197 | – | 9.4 | 9.7 | 10.8 | 10.6 | 9.4 | 7.6 | 7.1 | 6.6 | 6.1 | – |
| CS(=O)(=O)Cc1ccc(NC(=O)/C=C/c2cnccc2-c2ccc(F)cc2)cc1 [Example 7, (2E)-3-[4-(4-fluorophenyl)pyridin-3-yl]-N-{4-[(methylsulfonyl)methyl]phenyl}prop-2-enamide] | 197 | – | – | – | – | – | – | – | – | – | – | – |
| COc1ccc(-c2ncncc2/C=C/C(=O)Nc2ccc(CCc3nnco3)cc2)cc1 [Example 5, (2E)-3-[4-(4-methoxyphenyl)pyrimidin-5-yl]-N-{4-[2-(1,3,4-oxadiazol-2-yl)ethyl]phenyl}prop-2-enamide] | 290 | 233.3 | – | – | – | – | – | – | – | – | – | GHb change (%) ([1]; 0.03% mixed with feed): −0.3% |
| O=C(/C=C/c1cnccc1-c1ccc(F)cc1)Nc1ccc(Cn2ccnc2)cc1 [Example 9, (2E)-3-[4-(4-fluorophenyl)pyridin-3-yl]-N-[4-(1H-imidazol-1-ylmethyl)phenyl]prop-2-enamide] | 208 | – | 11.8 | 13.0 | 12.1 | 13.1 | 13.0 | 10.2 | 8.4 | 7.6 | 6.9 | – |
| CCOP(=O)(Cc1ccc(NC(=O)/C=C/c2cnccc2-c2ccccc2)cc1)OCC [Example 11, diethyl (4-{[(2E)-3-(4-phenylpyridin-3-yl)prop-2-enoyl]amino}benzyl)phosphonate] | 189 | – | 9.7 | 10.8 | 10.5 | 10.6 | 10.6 | 9.0 | 7.3 | 7.0 | 5.2 | – |
| COP(=O)(Cc1ccc(NC(=O)/C=C/c2cnccc2-c2ccc(F)cc2)cc1)OC [Example 14, dimethyl [4-({(2E)-3-[4-(4-fluorophenyl)pyridin-3-yl]prop-2-enoyl}amino)benzyl]phosphonate] | 205 | – | – | – | – | – | – | – | – | – | – | – |
| CCOP(=O)(Cc1ccc(NC(=O)/C=C/c2cnccc2-c2ccc(F)cc2)cc1)OCC [Example 13, diethyl [4-({(2E)-3-[4-(4-fluorophenyl)pyridin-3-yl]prop-2-enoyl}amino)benzyl]phosphonate] | 184 | – | – | – | – | – | – | – | – | – | – | – |
